Reference: patent publication EP4603105A1, “PHARMACEUTICAL COMPOSITION CONTAINING CYCLIC COMPOUND HAVING SELECTIVE KRAS INHIBITORY EFFECT AGAINST HRAS AND NRAS” (CHUGAI SEIYAKU KABUSHIKI KAISHA, priority 2022, dated 2024)
Where a SMILES comes first, the peptide text is derived from it. Bridges are numbered along the chain shown (N, C = ends). [ ]: non-standard residue; d: D form. The star is where a group is joined. hPhe(3-Cl-4-CF3) = N[C@@H](CCc1ccc(C(F)(F)F)c(Cl)c1)C(=O)O; NPrPhe(4-CF3) = CCCN[C@@H](Cc1ccc(C(F)(F)F)cc1)C(=O)O; NEtPhe(4-Me) = CCN[C@@H](Cc1ccc(C)cc1)C(=O)O; NMeGly(cPent) = CN[C@H](C(=O)O)C1CCCC1; Hyp = O=C(O)[C@@H]1C[C@@H](O)CN1; NMeD = CN[C@@H](CC(=O)O)C(=O)O; NMeL = CN[C@@H](CC(C)C)C(=O)O; Morpholide = C1CN(*)CCO1; NMeA = CN[C@@H](C)C(=O)O; Ac5c = NC1(C(=O)O)CCCC1; Aze = O=C(O)[C@@H]1CCN1; Sar = CNCC(=O)O

Experiments:
[1] = target: GDP-bound NRAS wild-type protein (Homo sapiens, UniProt P01111); assay: Binding to NRAS by surface plasmon resonance (SPR), KD and KD ratio to KRAS
Outline: (§1)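 Affinity is measured by surface plasmon resonance at 30°C against captured, GDP-loaded RAS carrying a biotinylated Avi tag. Compounds are titrated by single-cycle kinetics, and KD comes from a 1:1 fit.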

[2] = system: human lung cancer strain NCI-H441; assay type: cell-based
Outline: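 Readout: […] after the ATP-based reagent. Compound: serial dilutions in dimethyl sulfoxide.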

[3] = target: HRAS wild-type protein (Homo sapiens, UniProt P01112); assay: Binding to HRAS by surface plasmon resonance (SPR), KD and KD ratio to KRAS
Outline: as §1

[4] = ratio of the KD value with respect to GDP-bound NRAS wild-type protein to the KD value with respect to KRAS
[5] = ratio of the KD value with respect to HRAS wild-type protein to the KD value with respect to KRAS
[6] = ratio of KD for GDP-bound NRAS wild-type protein to KD for KRAS
[7] = ratio of KD for HRAS wild-type protein to KD for KRAS

GDP-bound NRAS wild-type protein, sequence (P01111 whole entry): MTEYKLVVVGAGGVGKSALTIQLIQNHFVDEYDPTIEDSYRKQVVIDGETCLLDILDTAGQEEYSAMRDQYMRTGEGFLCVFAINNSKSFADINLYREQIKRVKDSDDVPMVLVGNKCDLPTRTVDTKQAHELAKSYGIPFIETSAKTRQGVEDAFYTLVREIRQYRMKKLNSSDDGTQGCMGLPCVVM
HRAS wild-type protein, sequence (P01112 whole entry): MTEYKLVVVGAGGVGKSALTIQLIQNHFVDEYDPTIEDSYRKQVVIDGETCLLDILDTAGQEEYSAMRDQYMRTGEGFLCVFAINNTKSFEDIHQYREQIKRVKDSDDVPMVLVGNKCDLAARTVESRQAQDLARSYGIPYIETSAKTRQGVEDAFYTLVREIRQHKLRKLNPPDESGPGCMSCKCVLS

Row | IC50 [2] [nM] | SMILES | NRAS /KRAS [1, 4] | HRAS /KRAS [3, 5] | NRAS /KRAS [1, 6] | HRAS /KRAS [3, 7] | NRAS /KRAS ([1]; ratio of KD value for GDP-bound NRAS wild-type protein to KD value for KRAS (SPR)) | HRAS /KRAS ([3]; ratio of KD value for HRAS wild-type protein to KD value for KRAS (SPR))
1 | 12.2 | CCC[C@@H]1C[C@H]2C(=O)NC3(CC(C)(C)C3)C(=O)N(C)[C@@H](C3CCCC3)C(=O)N(C)[C@H](C(=O)N(C)C)CC(=O)N(C)[C@@H](COC)C(=O)N[C@@H]([C@@H](C)CC)C(=O)N(C)CC(=O)N(C)[C@H]3C/C=C\CCN(C3=O)[C@@H](Cc3ccc(C(F)(F)F)cc3)C(=O)N(C)CC(=O)N[C@@H](CCc3ccc(C(F)(F)F)c(Cl)c3)C(=O)N2C1 [PP2275] | A (a compound having 10 or more and less than 20 is denoted as A) | A (a compound having 10 or more and less than 20 is denoted as A) |  |  |  | 
2 | 94.2 | CCC[C@H]1C(=O)N[C@@H]([C@@H](C)CC)C(=O)N(C)CC(=O)N(C)[C@H]2C/C=C\CCN(C2=O)[C@@H](Cc2ccc(C(F)(F)F)cc2)C(=O)N(C)CC(=O)N[C@@H](CCc2ccc(Cl)c(Cl)c2)C(=O)N2CCCCC[C@H]2C(=O)NC2(CC(C)(C)C2)C(=O)N(C)[C@@H](C(CC)CC)C(=O)N(C)[C@H](C(=O)N(C)C)CC(=O)N1C [PP3031] |  |  | AA (a compound having 20 or more is denoted as AA) | A (a compound having 10 or more and less than 20 is denoted as A) |  | 
3 | 16.6 | CCO[C@@H]1C[C@H]2C(=O)NC3(CCC3)C(=O)N(C)[C@@H](C3CCCC3)C(=O)N(C)[C@H](C(=O)N(C)C)CC(=O)N(C)[C@H]3CCCCCc4ccc(cc4)C[C@@H](C(=O)N(C)CC(=O)N[C@@H](CCc4cc(F)c(C(F)(F)F)c(F)c4)C(=O)N2C1)N1CC/C=C\C[C@@H](C1=O)N(C)C(=O)CN(C)C(=O)[C@H]([C@@H](C)CC)NC3=O [PP2261] | A (a compound having 10 or more and less than 20 is denoted as A) | A (a compound having 10 or more and less than 20 is denoted as A) |  |  |  | 
4 | 2.7 | CCC[C@H]1C(=O)N[C@@H]([C@@H](C)CC)C(=O)N(C)CC(=O)N(C)[C@H]2C/C=C\CCN(C2=O)[C@@H](Cc2ccc(C(F)(F)F)cc2)C(=O)N(C)CC(=O)N[C@@H](CCc2ccc(C(F)(F)F)c(Cl)c2)C(=O)N2C[C@H](OCC)C[C@H]2C(=O)NC2(CC(C)(C)C2)C(=O)N(C)[C@@H](CC(C)(C)C)C(=O)N(C)[C@H](C(=O)N(C)C)CC(=O)N1C [PP2969] |  |  | AA (a compound having 20 or more is denoted as AA) | A (a compound having 10 or more and less than 20 is denoted as A) |  | 

The remaining lines, values behind:

Row | SMILES | IC50 [2] [nM] | NRAS /KRAS [1, 4] | HRAS /KRAS [3, 5] | NRAS /KRAS [1, 6] | HRAS /KRAS [3, 7] | NRAS /KRAS ([1]; ratio of KD value for GDP-bound NRAS wild-type protein to KD value for KRAS (SPR)) | HRAS /KRAS ([3]; ratio of KD value for HRAS wild-type protein to KD value for KRAS (SPR))
5 | CCC[C@H]1C(=O)N[C@@H]([C@@H](C)CC)C(=O)N(C)CC(=O)N(C)[C@H]2C/C=C\CCN(C2=O)[C@@H](Cc2ccc(C(F)(F)F)cc2)C(=O)N(C)CC(=O)N[C@@H](CCc2cc(F)c(C(F)(F)F)c(F)c2)C(=O)N(C)[C@@H](C)C(=O)NC2(CC(C)(C)C2)C(=O)N(C)[C@@H](C2CCCC2)C(=O)N(C)[C@H](C(=O)N(C)C)CC(=O)N1C [PP1934] | 68.5 | A (a compound having 10 or more and less than 20 is denoted as A) | A (a compound having 10 or more and less than 20 is denoted as A) |  |  |  | 
6 | CCO[C@@H]1C[C@H]2C(=O)NC3(CCC3)C(=O)N(C)[C@@H](C3CCCC3)C(=O)N(C)[C@H](C(=O)N(C)CC)CC(=O)N(C)[C@@H](CC)C(=O)N[C@@H]([C@@H](C)CC)C(=O)N(C)CC(=O)N(C)[C@H]3C/C=C\CCN(C3=O)[C@@H](CC3CCC(F)(F)CC3)C(=O)N(C)CC(=O)N[C@@H](CCc3cc(F)c(C(F)(F)F)c(F)c3)C(=O)N2C1 [PP1553] | 12.1 |  |  |  |  | A (a compound having 10 or more and less than 20 is denoted as A) | A (a compound having 10 or more and less than 20 is denoted as A)
7 | CCO[C@@H]1C[C@H]2C(=O)NC3(CCCC3)C(=O)N(C)[C@@H](C3CCCC3)C(=O)N(C)[C@H](C(=O)N3CCOCC3)CC(=O)N(C)[C@@H](CC(C)C)C(=O)N[C@@H]([C@@H](C)CC)C(=O)N(C)[C@@H](C)C(=O)N3CC[C@H]3C(=O)N(CC)[C@@H](Cc3ccc(C)cc3)C(=O)N(C)CC(=O)N[C@@H](CCc3ccc(C(F)(F)F)c(Cl)c3)C(=O)N2C1 [PP0014] ([NMeL]I[NMeA][Aze][NEtPhe(4-Me)][Sar][hPhe(3-Cl-4-CF3)][Hyp](Et)[Ac5c][NMeGly(cPent)][NMeD]-Morpholide; lactam N-11) | 2 |  |  | C (A compound having a KD ratio of 0.1 or more and less than 3 is denoted as C) | C (A compound having a KD ratio of 0.1 or more and less than 3 is denoted as C) |  | 
8 | CCCN1C(=O)CN(C)C(=O)CN(C)C(=O)[C@H]([C@@H](C)CC)NC(=O)[C@H](CC(C)C)N(C)C(=O)C[C@@H](C(=O)N2CCOCC2)N(C)C(=O)[C@H](C2CCCC2)N(C)C(=O)C2(CCCC2)NC(=O)[C@@H]2CCCN2C(=O)[C@H](CCc2ccc(C(F)(F)F)c(Cl)c2)NC(=O)CN(C)C(=O)[C@@H]1Cc1ccc(C(F)(F)F)cc1 [PP0060] ([NMeL]I[Sar][Sar][NPrPhe(4-CF3)][Sar][hPhe(3-Cl-4-CF3)]P[Ac5c][NMeGly(cPent)][NMeD]-Morpholide; lactam N-11) | 1.5 |  |  | B (a compound having 3 or more and less than 10 is denoted as B) | B (a compound having 3 or more and less than 10 is denoted as B) |  | 
